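96-well plates; 48 h exposure; 5 concentrations. Endpoints by linear interpolation between flanking doses. Not reached: highest tested concentration assigned. The concentration for 50% growth inhibition is given as GI50. TGI denotes the concentration required for complete inhibition of growth.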
Experiments:
Assay in all cases: DTP human tumour cell line panel, 48 h
BT-549 breast = system: BT-549 breast
LOX IMVI melanoma = system: LOX IMVI melanoma
TK-10 renal = system: TK-10 renal
A498 renal = system: A498 renal
HL-60(TB) leukemia = system: HL-60(TB) leukemia
IGROV1 ovarian = system: IGROV1 ovarian
A549 NSCLC = system: A549 NSCLC
SNB-19 CNS = system: SNB-19 CNS
MDA-MB-435 = system: MDA-MB-435
COLO 205 colon = system: COLO 205 colon

Compound | TGI (BT-549 breast) | TGI (LOX IMVI melanoma) | TGI (TK-10 renal) | TGI (A498 renal) | TGI (HL-60(TB) leukemia) | TGI (IGROV1 ovarian) | TGI (A549 NSCLC) | TGI (SNB-19 CNS) | TGI (MDA-MB-435) | TGI (COLO 205 colon) | GI50 (BT-549 breast) | GI50 (LOX IMVI melanoma) | GI50 (TK-10 renal) | GI50 (A498 renal) | GI50 (HL-60(TB) leukemia) | GI50 (IGROV1 ovarian) | GI50 (A549 NSCLC) | GI50 (SNB-19 CNS) | GI50 (MDA-MB-435) | GI50 (COLO 205 colon)
CCCCOc1ccc(NC(N)=Nc2ccc(Cl)cc2)cc1 | 23.4 µM | 15.1 µM | 18 µM | 14.5 µM | 22.5 µM | 21.3 µM | 10.3 µM | 20 µM | 23.4 µM | 0.26 µM |  |  |  |  |  |  |  |  |  | 
ClCCn1c(CCl)nc2ccc(Cl)cc21 | 0.753 µM | 0.317 µM | 2.95 µM | 4.8 µM | 4.11 µM | 0.476 µM | 4.24 µM | 7.19 µM | 2.12 µM | 3.07 µM | 0.277 µM | 0.156 µM | 1.46 µM | 2050 nM | 1890 nM | 213 nM | 1.76 µM | 2.33 µM | 692 nM | 1550 nM
CCCCCn1c(=N)n(CC(O)COc2cccc(C)c2)c2ccccc21 (stereo not given) | 23.3 µM | 11.6 µM | 22.4 µM | 13 µM | 4.9 µM | 18 µM | 22.9 µM | 26.4 µM | 11.2 µM | 3.62 µM | 9.22 µM | 3.25 µM | 10.2 µM | 1490 nM | 2150 nM | 4450 nM | 10.2 µM | 12.3 µM | 3000 nM | 1930 nM
COc1ccc(N2C(C)=C(C#N)C34C(=O)N(c5ccccc5)C(=O)C3=C(O)C=CC24O)cc1 (stereo not given) | 22.4 µM | 18.8 µM | 89 µM | 48.2 µM | 65.9 µM | 21.1 µM | > 100 µM | 50.2 µM | 28.7 µM | 23.2 µM | 9.75 µM | 5.24 µM | 21.5 µM | 18600 nM | 15500 nM | 2110 nM | 26.3 µM | 18.4 µM | 5500 nM | 10800 nM
CN1CCN(CCc2cccc(C(=O)c3cnn(-c4ccc(F)cc4)c3N)c2)CC1 | > 25 µM | > 25 µM | > 25 µM | > 25 µM | > 25 µM | > 25 µM | > 25 µM | > 25 µM | > 25 µM | > 25 µM | > 25 µM | > 25 µM | > 25 µM | > 25000 nM | > 25000 nM | > 25000 nM | > 25 µM | > 25 µM | > 25000 nM | > 25000 nM
CCN(Cc1ccc(F)c(F)c1)c1ccc(CO)c(Cl)c1 | 25 µM | 25.7 µM | 0.303 µM | 0.153 µM | 29.3 µM | 0.477 µM | 19.1 µM | 27.8 µM | 37.6 µM | 7.48 µM | 11.3 µM | 11.8 µM | 0.102 µM | 35.3 nM | 5420 nM | 98 nM | 1.89 µM | 12.6 µM | 17900 nM | 2320 nM
O=C(Cn1ccc(=O)[nH]c1=O)Nc1ccc(C(=O)O)c(O)c1 | > 100 µM | > 100 µM | > 100 µM | > 100 µM | > 100 µM | > 100 µM | > 100 µM | > 100 µM | > 100 µM | > 100 µM |  |  |  |  |  |  |  |  |  | 
O=CNc1c(Cl)cc2c(c1Cl)Cc1cc([N+](=O)[O-])ccc1-2 | > 86.9 µM | > 54.7 µM | > 59.5 µM | 48.4 µM | > 100 µM | 38.7 µM | > 100 µM | > 100 µM | 3.63 µM | 23.7 µM | 16.3 µM | 4.59 µM | 5.63 µM | 4070 nM | 3210 nM | 923 nM | 4.55 µM | 16.5 µM | 1460 nM | 4760 nM
COC(=O)[C@@H](C)C[C@H](Cc1ccccc1)NC(=O)c1nc([C@@H](C[C@H](C(C)C)N(C)C(=O)[C@@H](NC(=O)[C@H]2CCCCN2C)C(C)C)OC(C)=O)sc1C | 0.0568 µM | > 16.7 µM | > 16.7 µM | > 3.99 µM | < 0.00167 µM | > 16.7 µM | > 16.7 µM | > 16.7 µM | < 0.00167 µM | 0.00926 µM | < 0.00167 µM | < 0.00167 µM | > 10.4 µM | < 1.67 nM | < 1.67 nM | 1.7 nM | 0.00734 µM | < 0.00167 µM | < 1.67 nM | < 1.67 nM
CCCN=Cc1cc(Cc2ccc(O)c(C=NCCC)c2)ccc1O | > 100 µM | 13.4 µM | 57.4 µM | 8.97 µM | 5 µM | 37.2 µM | 32.3 µM | 12.2 µM | > 100 µM | 34.2 µM |  |  |  |  |  |  |  |  |  | 
Cc1ccc(S(=O)(=O)N2CCSCCSCCSCCSCC2)cc1 | 44 µM | > 100 µM | > 74.5 µM | > 74.2 µM | > 100 µM | > 100 µM | > 100 µM | 47.3 µM | > 100 µM | > 100 µM |  |  |  |  |  |  |  |  |  | 
COc1c(CCC[P+](c2ccccc2)(c2ccccc2)c2ccccc2)cc2c(c1OC)OCO2 | 15 µM | 10.4 µM | 34.7 µM | 3.3 µM | 1.48 µM | 10.7 µM | 38.1 µM | 12.9 µM | 5.03 µM | 5.71 µM | 1.24 µM | 2.4 µM | 4.71 µM | 26.1 nM | 339 nM | 1020 nM | 3.7 µM | 1.44 µM | 462 nM | 1210 nM
O=C(CC(=O)CC(O)(C(F)(F)F)C(F)(F)F)CC(O)(C(F)(F)F)C(F)(F)F | > 10 µM | > 10 µM | > 10 µM | > 10 µM | > 10 µM | > 10 µM | > 10 µM | > 10 µM | > 10 µM | > 10 µM |  |  |  |  |  |  |  |  |  | 
C=C1C(=O)O[C@H]2[C@H]1CC/C(COC(=O)NCc1ccccc1OC)=C\CC[C@@]1(C)O[C@@H]21 | 2.55 µM | 2.96 µM | 3.48 µM | 8.53 µM | 5.77 µM | 4.36 µM | 11.8 µM | 3.47 µM | 4.86 µM | 3.72 µM | 1.25 µM | 1.43 µM | 1.79 µM | 3230 nM | 1610 nM | 1570 nM | 3.07 µM | 1.57 µM | 1700 nM | 1750 nM

Reference: PubChem BioAssay (NCI)
